Type in all cases: biochemical
One experiment has as its target AURORA-B (Homo sapiens, UniProt Q96GD4). In words: Kinome profiling AURORA-B. The note with it: read-out: Inhibitory activity AURORA-B; for inhibition at 0.1 µM: 100 nM. The method, then:
(§1) . The kinome-wide selectivity was determined following the methods previously reported by Mohedas et al., ACS Chem Biol 2013, 8, 1291-1302 and Sanvitale et al., PLoS One 2013, 8, e62721.

For another experiment, the target named is FGFR3 (Homo sapiens, UniProt P22607). As to the kind of experiment: Kinome profiling FGFR3. The note with it: read-out: Inhibitory activity FGFR3; for inhibition at 0.1 µM: 100 nM. The method, then:
as §1

A further experiment deals with T1, FLT-3 (Homo sapiens, UniProt P36888).
T1 sequence (P36888 27-993): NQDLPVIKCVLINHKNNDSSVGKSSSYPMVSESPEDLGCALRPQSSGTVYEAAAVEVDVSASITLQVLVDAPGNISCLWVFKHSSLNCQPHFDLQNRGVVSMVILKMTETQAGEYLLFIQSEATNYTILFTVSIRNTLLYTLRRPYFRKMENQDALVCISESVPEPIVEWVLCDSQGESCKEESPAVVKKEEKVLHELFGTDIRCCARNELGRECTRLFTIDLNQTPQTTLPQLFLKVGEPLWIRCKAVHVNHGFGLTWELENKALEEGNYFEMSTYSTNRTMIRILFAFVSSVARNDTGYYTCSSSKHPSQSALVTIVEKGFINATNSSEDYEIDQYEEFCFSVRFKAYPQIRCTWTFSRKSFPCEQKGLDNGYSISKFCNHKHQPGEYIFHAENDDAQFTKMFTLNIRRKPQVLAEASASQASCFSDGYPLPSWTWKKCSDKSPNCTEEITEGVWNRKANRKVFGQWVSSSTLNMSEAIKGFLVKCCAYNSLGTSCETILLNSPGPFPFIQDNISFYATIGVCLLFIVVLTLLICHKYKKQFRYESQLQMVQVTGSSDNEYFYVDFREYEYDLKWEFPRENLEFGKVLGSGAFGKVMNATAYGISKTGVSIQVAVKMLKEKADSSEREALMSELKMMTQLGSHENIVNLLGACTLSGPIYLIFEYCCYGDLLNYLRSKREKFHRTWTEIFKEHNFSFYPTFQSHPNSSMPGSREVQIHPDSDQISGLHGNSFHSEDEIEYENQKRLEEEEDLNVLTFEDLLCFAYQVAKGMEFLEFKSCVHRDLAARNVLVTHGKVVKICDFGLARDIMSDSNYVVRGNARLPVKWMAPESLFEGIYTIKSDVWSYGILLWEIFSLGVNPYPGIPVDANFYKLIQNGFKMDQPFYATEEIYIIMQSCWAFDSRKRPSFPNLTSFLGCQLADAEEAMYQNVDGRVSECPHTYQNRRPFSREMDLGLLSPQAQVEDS
In words: Kinome profiling FLT-3. The following applies: read-out: Inhibitory activity FLT-3; for inhibition at 0.1 µM: 100 nM. The method, then:
as §1

Another experiment addresses RSK2 (Homo sapiens, UniProt P51812). In words: Kinome profiling RSK2. The note with it: read-out: Inhibitory activity RSK2; for inhibition at 0.1 µM: 100 nM. The method, then:
as §1

A further experiment has as its target JNK2 (Homo sapiens, UniProt P45984). In words: Kinome profiling JNK2. The following applies: read-out: Inhibitory activity JNK2; for inhibition at 0.1 µM: 100 nM. The method, then:
as §1

In another experiment the target is T2, ZAP70 (Homo sapiens, UniProt P43403).
T2 sequence (P43403 1-619): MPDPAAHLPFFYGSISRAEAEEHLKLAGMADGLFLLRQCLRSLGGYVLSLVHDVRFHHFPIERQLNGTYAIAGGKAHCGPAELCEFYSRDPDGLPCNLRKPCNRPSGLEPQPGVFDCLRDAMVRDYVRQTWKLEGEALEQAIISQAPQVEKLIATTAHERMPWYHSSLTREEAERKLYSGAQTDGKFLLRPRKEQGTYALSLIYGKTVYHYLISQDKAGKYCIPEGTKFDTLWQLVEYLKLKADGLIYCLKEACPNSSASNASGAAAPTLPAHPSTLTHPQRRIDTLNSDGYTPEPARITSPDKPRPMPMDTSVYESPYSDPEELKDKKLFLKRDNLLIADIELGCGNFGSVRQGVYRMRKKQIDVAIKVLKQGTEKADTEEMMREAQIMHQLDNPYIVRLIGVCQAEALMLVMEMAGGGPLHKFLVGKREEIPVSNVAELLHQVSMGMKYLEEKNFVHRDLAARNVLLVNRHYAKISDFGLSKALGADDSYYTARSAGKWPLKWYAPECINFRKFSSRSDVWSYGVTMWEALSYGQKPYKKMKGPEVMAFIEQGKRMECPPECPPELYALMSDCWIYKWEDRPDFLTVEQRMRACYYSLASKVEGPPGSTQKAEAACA
In words: Kinome profiling ZAP70. The following applies: read-out: Inhibitory activity ZAP70; for inhibition at 0.1 µM: 100 nM. The method, then:
as §1

The target in another experiment is T3, PRKG2 (Homo sapiens, UniProt Q13237).
T3 sequence (Q13237 1-762): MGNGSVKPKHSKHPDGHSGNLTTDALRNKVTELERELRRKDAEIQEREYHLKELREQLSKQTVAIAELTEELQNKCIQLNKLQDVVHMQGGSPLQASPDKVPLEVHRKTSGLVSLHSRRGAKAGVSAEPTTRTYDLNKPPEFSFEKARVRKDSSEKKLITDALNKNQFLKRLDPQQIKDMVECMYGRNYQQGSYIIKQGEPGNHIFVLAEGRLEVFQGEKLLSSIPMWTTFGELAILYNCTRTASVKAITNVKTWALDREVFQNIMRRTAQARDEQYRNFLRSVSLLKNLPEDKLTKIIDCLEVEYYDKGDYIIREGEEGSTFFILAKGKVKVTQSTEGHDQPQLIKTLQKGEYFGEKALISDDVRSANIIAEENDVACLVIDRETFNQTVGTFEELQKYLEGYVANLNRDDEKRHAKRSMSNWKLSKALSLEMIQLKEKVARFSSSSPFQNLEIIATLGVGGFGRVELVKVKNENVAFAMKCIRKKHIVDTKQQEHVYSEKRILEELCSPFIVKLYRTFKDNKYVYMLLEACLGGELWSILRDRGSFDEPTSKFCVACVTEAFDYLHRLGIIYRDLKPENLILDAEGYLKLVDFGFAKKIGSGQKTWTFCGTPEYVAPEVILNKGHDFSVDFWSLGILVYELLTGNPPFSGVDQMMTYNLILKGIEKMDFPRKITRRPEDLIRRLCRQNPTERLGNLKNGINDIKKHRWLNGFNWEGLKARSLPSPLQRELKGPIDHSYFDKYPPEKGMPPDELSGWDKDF
In words: Kinome profiling PRKG2. The following applies: read-out: Inhibitory activity PRKG2; for inhibition at 0.1 µM: 100 nM. The method, then: as §1

The structures appear in SMILES notation.

This note sets out measurements from patent US20170190705A1, “Compositions and Methods for Inhibiting BMP” (THE BRIGHAM AND WOMAN'S HOSPITAL, INC., priority 2014, published 2017).

Sequence of FGFR3 (P22607 23-806): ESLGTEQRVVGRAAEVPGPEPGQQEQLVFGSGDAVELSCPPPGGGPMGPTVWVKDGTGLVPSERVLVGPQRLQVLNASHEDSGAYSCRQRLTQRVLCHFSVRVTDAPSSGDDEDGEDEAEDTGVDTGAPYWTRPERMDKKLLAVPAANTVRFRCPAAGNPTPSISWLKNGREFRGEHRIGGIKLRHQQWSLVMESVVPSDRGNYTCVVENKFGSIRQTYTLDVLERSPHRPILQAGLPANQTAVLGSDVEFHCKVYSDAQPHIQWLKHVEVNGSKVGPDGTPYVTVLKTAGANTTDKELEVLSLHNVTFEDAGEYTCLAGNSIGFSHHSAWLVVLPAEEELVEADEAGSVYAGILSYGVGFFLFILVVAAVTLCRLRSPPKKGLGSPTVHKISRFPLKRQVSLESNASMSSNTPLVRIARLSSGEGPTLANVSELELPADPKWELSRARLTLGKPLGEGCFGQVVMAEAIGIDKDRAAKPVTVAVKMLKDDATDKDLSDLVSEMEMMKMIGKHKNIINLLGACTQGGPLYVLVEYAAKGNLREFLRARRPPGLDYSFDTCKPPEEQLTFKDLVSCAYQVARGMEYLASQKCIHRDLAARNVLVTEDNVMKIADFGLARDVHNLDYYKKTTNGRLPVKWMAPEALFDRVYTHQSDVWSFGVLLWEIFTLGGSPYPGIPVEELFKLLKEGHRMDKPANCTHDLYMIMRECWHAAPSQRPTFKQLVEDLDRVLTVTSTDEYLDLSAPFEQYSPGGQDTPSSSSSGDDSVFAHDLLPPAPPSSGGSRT
Sequence of AURORA-B (Q96GD4 whole entry): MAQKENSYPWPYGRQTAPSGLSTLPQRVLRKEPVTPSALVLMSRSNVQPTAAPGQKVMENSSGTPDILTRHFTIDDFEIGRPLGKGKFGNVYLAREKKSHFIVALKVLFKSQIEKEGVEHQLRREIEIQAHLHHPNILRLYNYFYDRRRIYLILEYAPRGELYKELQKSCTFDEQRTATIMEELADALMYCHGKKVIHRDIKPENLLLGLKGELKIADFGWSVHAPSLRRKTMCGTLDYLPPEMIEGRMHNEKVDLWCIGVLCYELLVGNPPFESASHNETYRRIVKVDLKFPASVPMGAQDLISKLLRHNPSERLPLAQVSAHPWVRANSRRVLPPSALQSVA
Sequence of JNK2 (P45984 whole entry): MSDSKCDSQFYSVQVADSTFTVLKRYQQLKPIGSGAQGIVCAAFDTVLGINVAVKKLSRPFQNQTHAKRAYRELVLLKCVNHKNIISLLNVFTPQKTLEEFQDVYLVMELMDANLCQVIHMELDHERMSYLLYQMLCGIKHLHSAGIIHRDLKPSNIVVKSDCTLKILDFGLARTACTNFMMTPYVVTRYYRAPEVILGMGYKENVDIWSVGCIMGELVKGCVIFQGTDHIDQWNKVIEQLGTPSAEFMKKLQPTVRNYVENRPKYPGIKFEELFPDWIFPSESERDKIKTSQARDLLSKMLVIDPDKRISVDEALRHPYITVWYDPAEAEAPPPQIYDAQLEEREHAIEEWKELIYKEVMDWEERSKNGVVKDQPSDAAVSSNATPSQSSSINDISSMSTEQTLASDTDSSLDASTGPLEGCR
Sequence of RSK2 (P51812 whole entry): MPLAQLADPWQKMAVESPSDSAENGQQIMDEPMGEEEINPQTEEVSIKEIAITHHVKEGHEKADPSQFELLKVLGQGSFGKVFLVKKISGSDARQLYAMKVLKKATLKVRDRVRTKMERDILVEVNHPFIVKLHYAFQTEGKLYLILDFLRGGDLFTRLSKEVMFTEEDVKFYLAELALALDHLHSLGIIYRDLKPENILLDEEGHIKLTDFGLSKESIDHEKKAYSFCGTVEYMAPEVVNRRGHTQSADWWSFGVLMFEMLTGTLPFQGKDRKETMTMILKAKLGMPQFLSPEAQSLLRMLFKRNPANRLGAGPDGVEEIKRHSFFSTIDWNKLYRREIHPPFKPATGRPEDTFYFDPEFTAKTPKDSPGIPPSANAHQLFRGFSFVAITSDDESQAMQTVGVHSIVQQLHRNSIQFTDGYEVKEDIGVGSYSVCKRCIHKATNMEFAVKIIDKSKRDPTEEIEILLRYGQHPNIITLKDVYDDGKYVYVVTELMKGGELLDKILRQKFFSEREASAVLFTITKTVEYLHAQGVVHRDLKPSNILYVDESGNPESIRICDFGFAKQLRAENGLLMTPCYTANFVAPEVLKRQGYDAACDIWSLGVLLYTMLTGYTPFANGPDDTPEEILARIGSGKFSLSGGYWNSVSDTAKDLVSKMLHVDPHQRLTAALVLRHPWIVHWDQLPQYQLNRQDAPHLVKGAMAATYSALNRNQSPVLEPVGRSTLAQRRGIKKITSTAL

Take `COc1cc(-c2cc(-c3ccc(N4CCNCC4)cc3)cnc2N)cc(OC)c1OC` [Compound 15, 5-(4-(piperazin-1-yl)phenyl)-3-(3,4,5-trimethoxyphenyl)pyridin-2-amine]: the inhibition at 0.1 µM was 3% on AURORA-B; 2% on FGFR3; 1% at FLT-3; 0% on RSK2; 2% on JNK2; 1% on ZAP70. In addition, the inhibition at 0.1 µM at PRKG2 was determined as 0%. The inhibition at 1 µM is 8% on AURORA-B; 6% at FGFR3; 5% at FLT-3; 4% on RSK2; 3% at JNK2; 1% at ZAP70. Also, the inhibition at 1 µM on PRKG2 amounted to 1%.
For `COc1cc(-c2cc(-c3ccc(N4CCNCC4)cc3)cnc2C)cc(OC)c1OC` [Compound 10, 1-(4-(6-methyl-5-(3,4,5-trimethoxyphenyl)pyridin-3-yl)phenyl)piperazine], the inhibition at 0.1 µM on AURORA-B turned out to be 2%; at FGFR3 it was 0%; on FLT-3, 3%; on RSK2 it was 1%; on JNK2 it was 0%; on ZAP70 it was 4%. Further, on PRKG2, the inhibition at 0.1 µM was 0%. In addition, the inhibition at 1 µM turned out to be 3% on AURORA-B; 0% on FGFR3; 18% at FLT-3; 1% at RSK2; 2% at JNK2; 5% on ZAP70. For the same molecule, on PRKG2, the inhibition at 1 µM worked out at 4%.
